Source: patent publication US9416111B2, “Substituted diazine and triazine spleen tyrosine kinease (Syk) inhibitors” (Merck Sharp & Dohme Corp., priority 2012, dated 2016)

What follows are molecules tested against T1, recombinant human GST-SYK (Homo sapiens, UniProt P43405) (assay: Homogeneous Time-Resolved Fluorescence (HTRF) assay for the recombinant human Syk enzyme). Conditions: GST-hSYK 5 pM, ATP 25 μM, IC50 rated in classes, read-out: rhSYK Activity.
T1 construct: purchased Carna Biosciences 08-176
Type: biochemical
Description: Homogeneous Time-Resolved Fluorescence (HTRF) Assay for the Recombinant Human Syk Enzyme
A recombinant GST-hSYK fusion protein was used to measure potency of compounds to inhibit human Syk activity. The recombinant human GST-SYK (Carna Biosciences #08-176) (5 pM final concentration) was incubated with various concentrations of the inhibitor diluted in DMSO (0.1% final concentration) for 10 minutes at room temperature in 15 mM Tris-HCl (pH 7.5), 0.01% tween 20, 2 mM DTT in 384 well plate format. To initiate the reaction the biotinylated substrate peptide (250 nM final concentration) that contains the phosphorylation site for Syk was added with magnesium (5 mM final concentration) and ATP (25 μM final concentration). Final volume of the reaction was 10 μL. Phosphorylation of the peptide was allowed to proceed for 45′ at room temperature. To quench the reaction and detect the phosphorylated product, 2 nM of a Europium-anti-phosphotyrosine antibody (Perkin Elmer #AD0161) and 70 nM SA-APC (Perkin-Elmer #CR130-100) were added together in 15 mM Tris pH 7.5, 40 mM EDTA, 0.01% tween 20. Final volume of the quenching solution was 10 μL. The resulting HTRF signal was measured after 30 minutes on an EnVision (Perkin-Elmer) reader using a time-resolved fluorescence protocol.

**Q.** For Cc1cc(Nc2nccc(C(F)(F)F)n2)cc(-c2cnc(NCC(O)CO)nc2)c1 (stereo not shown) [Example 2.13, 3-{[5-(3-methyl-5-{[4-(trifluoromethyl)pyrimidin-2-yl]amino}phenyl)pyrimidin-2-yl]amino}propane-1,2-diol], which IC50 is on record?
**A.** Its IC50 is less than 100 nM.

**Q.** CCC[C@H](Nc1ncc(-c2cc(C)cc(Nc3nccc(C(F)(F)F)n3)c2)cn1)C(=O)O [Example 2.14, N-[5-(3-methyl-5-{[4-(trifluoromethyl)pyrimidin-2-yl]amino}phenyl)pyrimidin-2-yl]-L-norvaline] was tested. Which IC50 did it give?
**A.** The IC50 was less than 100 nM.

**Q.** With Cc1cc(Nc2nccc(C(F)(F)F)n2)cc(-c2cnc(NCC(O)C(F)F)nc2)c1 (stereo not shown) [Example 2.15, 1,1-difluoro-3-{[5-(3-methyl-5-{[4-(trifluoromethyl)pyrimidin-2-yl]amino}phenyl)pyrimidin-2-yl]amino}propan-2-ol] as the molecule, how does the IC50 read?
**A.** Its IC50 is less than 100 nM.

**Q.** Which IC50 does the source give for Cc1cc(Nc2nccc(C(F)(F)F)n2)cc(-c2cnc(NC3CCS(=O)(=O)C3)nc2)c1 (stereo not shown) [Example 2.16, N-(3-{2-[(1,1-dioxidotetrahydrothiophen-3-yl)amino]pyrimidin-5-yl}-5-methylphenyl)-4-(trifluoromethyl)pyrimidin-2-] here?
**A.** The IC50 was less than 100 nM.

**Q.** Cc1cc(Nc2nccc(C(F)(F)F)n2)cc(-c2cnc(NCc3cnn(C)c3)nc2)c1 [Example 2.17, N-[3-methyl-5-(2-{[(1-methyl-1H-pyrazol-4-yl)methyl]amino}pyrimidin-5-yl)phenyl]-4-(trifluoromethyl)pyrimidin-2-amine] was tested. Which IC50 did it give?
**A.** The IC50 was less than 100 nM.

**Q.** For Cc1cc(Nc2nccc(C(F)(F)F)n2)cc(-c2cnc(NC3CCOC3)nc2)c1 (stereo not shown) [Example 2.18, N-{3-methyl-5-[2-(tetrahydrofuran-3-ylamino)pyrimidin-5-yl]phenyl}-4-(trifluoromethyl)pyrimidin-2-amine], which IC50 is on record?
**A.** Its IC50 is less than 100 nM.

**Q.** Cc1cc(Nc2nccc(C(F)(F)F)n2)cc(-c2cnc(NCC3COCCO3)nc2)c1 (stereo not shown) [Example 2.19, N-(3-{2-[(1,4-dioxan-2-ylmethyl)amino]pyrimidin-5-yl}-5-methylphenyl)-4-(trifluoromethyl)pyrimidin-2-amine] was tested. Which IC50 did it give?
**A.** The IC50 was less than 100 nM.

**Q.** Cc1cc(Nc2nccc(C(F)(F)F)n2)cc(-c2cnc(N3CCS(=O)(=O)CC3)nc2)c1 [Example 2.20, N-{3-[2-(1,1-dioxidothiomorpholin-4-yl)pyrimidin-5-yl]-5-methylphenyl}-4-(trifluoromethyl)pyrimidin-2-amine] was tested. Which IC50 did it give?
**A.** The IC50 was less than 100 nM.

**Q.** Cc1cc(Nc2nccc(C(F)(F)F)n2)cc(-c2cnc(NC(C)c3ccccn3)nc2)c1 (stereo not shown) [Example 2.21, N-(3-methyl-5-{2-[(1-pyridin-2-ylethyl)amino]pyrimidin-5-yl}phenyl)-4-(trifluoromethyl)pyrimidin-2-amine] was tested. Which IC50 did it give?
**A.** The IC50 was less than 100 nM.

**Q.** For Cc1cc(Nc2nccc(C(F)(F)F)n2)cc(-c2cnc(NCC3CCC(=O)N3)nc2)c1 (stereo not shown) [Example 2.22, 5-({[5-(3-methyl-5-{[4-(trifluoromethyl)pyrimidin-2-yl]amino}phenyl)pyrimidin-2-yl]amino}methyl)pyrrolidin-2-one], which IC50 is on record?
**A.** Its IC50 is less than 100 nM.

**Q.** For Cc1cc(Nc2nccc(C(F)(F)F)n2)cc(-c2cnc(N3CCOC(CCO)C3)nc2)c1 (stereo not shown) [Example 2.23, 2-{4-[5-(3-methyl-5-{[4-(trifluoromethyl)pyrimidin-2-yl]amino}phenyl)pyrimidin-2-yl]morpholin-2-yl}ethanol], which IC50 is on record?
**A.** Its IC50 is 100 to 1000 nM.

**Q.** With Cc1cc(Nc2nccc(C(F)(F)F)n2)cc(-c2cnc(N3CCC(=O)N(C)CC3)nc2)c1 [Example 2.24, 4-methyl-1-[5-(3-methyl-5-{[4-(trifluoromethyl)pyrimidin-2-yl]amino}phenyl)pyrimidin-2-yl]-1,4-diazepan-5-one] as the molecule, how does the IC50 read?
**A.** Its IC50 is less than 100 nM.

**Q.** How did the IC50 turn out when COCC1CN(c2ncc(-c3cc(C)cc(Nc4nccc(C(F)(F)F)n4)c3)cn2)CCO1 (stereo not shown) [Example 2.25, N-(3-{2-[2-(methoxymethyl)morpholin-4-yl]pyrimidin-5-yl}-5-methylphenyl)-4-(trifluoromethyl)pyrimidin-2-amine] was run?
**A.** Its IC50 is 100 to 1000 nM.

**Q.** Cc1cc(Nc2nccc(C(F)(F)F)n2)cc(-c2cnc(NCCS(N)(=O)=O)nc2)c1 [Example 2.26, 2-{[5-(3-methyl-5-{[4-(trifluoromethyl)pyrimidin-2-yl]amino}phenyl)pyrimidin-2-yl]amino}ethanesulfonamide] was tested. Which IC50 did it give?
**A.** The IC50 was less than 100 nM.

**Q.** Which IC50 does the source give for Cc1cc(Nc2nccc(C(F)(F)F)n2)cc(-c2cnc(N3CCCC(C)(O)C3)nc2)c1 (stereo not shown) [Example 2.27, 3-methyl-1-[5-(3-methyl-5-{[4-(trifluoromethyl)pyrimidin-2-yl]amino}phenyl)pyrimidin-2-yl]piperidin-3-ol] here?
**A.** The IC50 was less than 100 nM.

**Q.** How did the IC50 turn out when Cc1cc(Nc2nccc(C(F)(F)F)n2)cc(-c2cnc(N3CCC(C)(O)C3)nc2)c1 (stereo not shown) [Example 2.28, 3-methyl-1-[5-(3-methyl-5-{[4-(trifluoromethyl)pyrimidin-2-yl]amino}phenyl)pyrimidin-2-yl]pyrrolidin-3-ol] was run?
**A.** The IC50 was less than 100 nM.

**Q.** How did the IC50 turn out when Cc1cc(Nc2nccc(C(F)(F)F)n2)cc(-c2cnc(N3CCC(C)(O)CC3)nc2)c1 [Example 2.29, 4-methyl-1-[5-(3-methyl-5-{[4-(trifluoromethyl)pyrimidin-2-yl]amino}phenyl)pyrimidin-2-yl]piperidin-4-ol] was run?
**A.** Its IC50 is 100 to 1000 nM.

**Q.** With Cc1cc(Nc2nccc(C(F)(F)F)n2)cc(-c2cnc(N(C)CCO)nc2)c1 [Example 2.30, 2-{methyl[5-(3-methyl-5-{[4-(trifluoromethyl)pyrimidin-2-yl]amino}phenyl)pyrimidin-2-yl]amino}ethanol] as the molecule, how does the IC50 read?
**A.** Its IC50 is less than 100 nM.

**Q.** For Cc1cc(Nc2nccc(C(F)(F)F)n2)cc(-c2cnc(N(CCO)CCO)nc2)c1 [Example 2.31, 2,2′-{[5-(3-methyl-5-{[4-(trifluoromethyl)pyrimidin-2-yl]amino}phenyl)pyrimidin-2-yl]imino}diethanol], which IC50 is on record?
**A.** Its IC50 is less than 100 nM.

**Q.** With Cc1cc(Nc2nccc(C(F)(F)F)n2)cc(-c2cnc(N(C)CC(=O)O)nc2)c1 [Example 2.32, N-methyl-N-[5-(3-methyl-5-{[4-(trifluoromethyl)pyrimidin-2-yl]amino}phenyl)pyrimidin-2-yl]glycine] as the molecule, how does the IC50 read?
**A.** Its IC50 is less than 100 nM.

**Q.** Which IC50 does the source give for Cc1cc(Nc2nccc(C(F)(F)F)n2)cc(-c2cnc(NCCc3c[nH]cn3)nc2)c1 [Example 2.33, N-[3-(2-{[2-(1H-imidazol-4-yl)ethyl]amino}pyrimidin-5-yl)-5-methylphenyl]-4-(trifluoromethyl)pyrimidin-2-amine] here?
**A.** The IC50 was less than 100 nM.

**Q.** For Cc1cc(Nc2nccc(C(F)(F)F)n2)cc(-c2cnc(NCCCO)nc2)c1 [Example 2.34, 3-{[5-(3-methyl-5-{[4-(trifluoromethyl)pyrimidin-2-yl]amino}phenyl)pyrimidin-2-yl]amino}propan-1-ol], which IC50 is on record?
**A.** Its IC50 is less than 100 nM.

**Q.** Which IC50 does the source give for Cc1cc(Nc2nccc(C(F)(F)F)n2)cc(-c2cnc(NCCCCO)nc2)c1 [Example 2.35, 4-{[5-(3-methyl-5-{[4-(trifluoromethyl)pyrimidin-2-yl]amino}phenyl)pyrimidin-2-yl]amino}butan-1-ol] here?
**A.** Its IC50 is less than 100 nM.

**Q.** Which IC50 does the source give for Cc1cc(Nc2nccc(C(F)(F)F)n2)cc(-c2cnc(NC3(CO)CCCC3)nc2)c1 [Example 2.36, (1-{[5-(3-methyl-5-{[4-(trifluoromethyl)pyrimidin-2-yl]amino}phenyl)pyrimidin-2-yl]amino}cyclopentyl)methanol] here?
**A.** Its IC50 is less than 100 nM.

**Q.** For Cc1cc(Nc2nccc(C(F)(F)F)n2)cc(-c2cnc(NCC(N)=O)nc2)c1 [Example 2.37, N~2~-[5-(3-methyl-5-{[4-(trifluoromethyl)pyrimidin-2-yl]amino}phenyl)pyrimidin-2-yl]glycinamide], which IC50 is on record?
**A.** Its IC50 is less than 100 nM.
